Experimental data taken from the supplement of paper PMC12463676, “Small-molecule dissolution of stress granules by redox modulation benefits ALS models” (Nature Chemical Biology, 2025).

Legend:
[1] = compound: NC(=O)CCCCC1CCSS1 [lipoamide]; experiment: thermal stability z-score vs DMSO; higher = more thermally stabilized by treatment; conditions: HeLa, lipoamide concentration 100 µM
Description: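 Cellular thermal proteome profiling in HeLa cells. Cells were treated with 100 µM lipoamide for 1 h, with or without 1 mM arsenate for a further 1 h, then heated to ten temperatures (37-66.3 °C), and soluble protein was quantified by TMT mass spectrometry relative to 0.1% DMSO controls. The thermal stability score (sum of log2 fold changes minus the abundance score) was transformed to a z-score; mean of n = 3 experiments.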

[2] = compound: O=[As]([O-])(O)O.[K+] [potassium arsenate]; experiment: as above; conditions: HeLa; arsenate concentration 1 mM
Description: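 Cellular thermal proteome profiling in HeLa cells treated with 1 mM arsenate for 1 h (DMSO pretreatment), heated to ten temperatures (37-66.3 °C). Soluble protein was quantified by TMT mass spectrometry relative to DMSO controls; the thermal stability score was transformed to a z-score; mean of n = 3 experiments.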

[3] = arsenate co-treatment: 1 mM arsenate 1 h
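Further: each temperature applied for 3 min, abundance score taken as mean log2 fold change at the two lowest temperatures, z-score obtained by mean subtraction and division by SD.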

LDHA (UniProt P00338)
thermal stability z-score [1, 3]: 0.685
thermal stability z-score ([1]; arsenate co-treatment: none): 0.577
thermal stability z-score [2]: -0.436

SLC7A11 (UniProt Q9UPY5)
thermal stability z-score [1, 3]: 0.242
thermal stability z-score ([1]; arsenate co-treatment: none): 0.155
thermal stability z-score [2]: -0.0447

ECHS1 (UniProt P30084)
thermal stability z-score [1, 3]: -0.919
thermal stability z-score ([1]; arsenate co-treatment: none): -0.57
thermal stability z-score [2]: -1.22

TUBB2A (UniProt Q13885)
thermal stability z-score [1, 3]: 0.383
thermal stability z-score ([1]; arsenate co-treatment: none): 0.458
thermal stability z-score [2]: 0.692

MKNK2 (UniProt Q9HBH9)
thermal stability z-score [1, 3]: -0.569
thermal stability z-score ([1]; arsenate co-treatment: none): 0.232
thermal stability z-score [2]: 0.192

PIEZO1 (UniProt Q92508)
Chain of UniProt Q92508 (Q92508 whole entry): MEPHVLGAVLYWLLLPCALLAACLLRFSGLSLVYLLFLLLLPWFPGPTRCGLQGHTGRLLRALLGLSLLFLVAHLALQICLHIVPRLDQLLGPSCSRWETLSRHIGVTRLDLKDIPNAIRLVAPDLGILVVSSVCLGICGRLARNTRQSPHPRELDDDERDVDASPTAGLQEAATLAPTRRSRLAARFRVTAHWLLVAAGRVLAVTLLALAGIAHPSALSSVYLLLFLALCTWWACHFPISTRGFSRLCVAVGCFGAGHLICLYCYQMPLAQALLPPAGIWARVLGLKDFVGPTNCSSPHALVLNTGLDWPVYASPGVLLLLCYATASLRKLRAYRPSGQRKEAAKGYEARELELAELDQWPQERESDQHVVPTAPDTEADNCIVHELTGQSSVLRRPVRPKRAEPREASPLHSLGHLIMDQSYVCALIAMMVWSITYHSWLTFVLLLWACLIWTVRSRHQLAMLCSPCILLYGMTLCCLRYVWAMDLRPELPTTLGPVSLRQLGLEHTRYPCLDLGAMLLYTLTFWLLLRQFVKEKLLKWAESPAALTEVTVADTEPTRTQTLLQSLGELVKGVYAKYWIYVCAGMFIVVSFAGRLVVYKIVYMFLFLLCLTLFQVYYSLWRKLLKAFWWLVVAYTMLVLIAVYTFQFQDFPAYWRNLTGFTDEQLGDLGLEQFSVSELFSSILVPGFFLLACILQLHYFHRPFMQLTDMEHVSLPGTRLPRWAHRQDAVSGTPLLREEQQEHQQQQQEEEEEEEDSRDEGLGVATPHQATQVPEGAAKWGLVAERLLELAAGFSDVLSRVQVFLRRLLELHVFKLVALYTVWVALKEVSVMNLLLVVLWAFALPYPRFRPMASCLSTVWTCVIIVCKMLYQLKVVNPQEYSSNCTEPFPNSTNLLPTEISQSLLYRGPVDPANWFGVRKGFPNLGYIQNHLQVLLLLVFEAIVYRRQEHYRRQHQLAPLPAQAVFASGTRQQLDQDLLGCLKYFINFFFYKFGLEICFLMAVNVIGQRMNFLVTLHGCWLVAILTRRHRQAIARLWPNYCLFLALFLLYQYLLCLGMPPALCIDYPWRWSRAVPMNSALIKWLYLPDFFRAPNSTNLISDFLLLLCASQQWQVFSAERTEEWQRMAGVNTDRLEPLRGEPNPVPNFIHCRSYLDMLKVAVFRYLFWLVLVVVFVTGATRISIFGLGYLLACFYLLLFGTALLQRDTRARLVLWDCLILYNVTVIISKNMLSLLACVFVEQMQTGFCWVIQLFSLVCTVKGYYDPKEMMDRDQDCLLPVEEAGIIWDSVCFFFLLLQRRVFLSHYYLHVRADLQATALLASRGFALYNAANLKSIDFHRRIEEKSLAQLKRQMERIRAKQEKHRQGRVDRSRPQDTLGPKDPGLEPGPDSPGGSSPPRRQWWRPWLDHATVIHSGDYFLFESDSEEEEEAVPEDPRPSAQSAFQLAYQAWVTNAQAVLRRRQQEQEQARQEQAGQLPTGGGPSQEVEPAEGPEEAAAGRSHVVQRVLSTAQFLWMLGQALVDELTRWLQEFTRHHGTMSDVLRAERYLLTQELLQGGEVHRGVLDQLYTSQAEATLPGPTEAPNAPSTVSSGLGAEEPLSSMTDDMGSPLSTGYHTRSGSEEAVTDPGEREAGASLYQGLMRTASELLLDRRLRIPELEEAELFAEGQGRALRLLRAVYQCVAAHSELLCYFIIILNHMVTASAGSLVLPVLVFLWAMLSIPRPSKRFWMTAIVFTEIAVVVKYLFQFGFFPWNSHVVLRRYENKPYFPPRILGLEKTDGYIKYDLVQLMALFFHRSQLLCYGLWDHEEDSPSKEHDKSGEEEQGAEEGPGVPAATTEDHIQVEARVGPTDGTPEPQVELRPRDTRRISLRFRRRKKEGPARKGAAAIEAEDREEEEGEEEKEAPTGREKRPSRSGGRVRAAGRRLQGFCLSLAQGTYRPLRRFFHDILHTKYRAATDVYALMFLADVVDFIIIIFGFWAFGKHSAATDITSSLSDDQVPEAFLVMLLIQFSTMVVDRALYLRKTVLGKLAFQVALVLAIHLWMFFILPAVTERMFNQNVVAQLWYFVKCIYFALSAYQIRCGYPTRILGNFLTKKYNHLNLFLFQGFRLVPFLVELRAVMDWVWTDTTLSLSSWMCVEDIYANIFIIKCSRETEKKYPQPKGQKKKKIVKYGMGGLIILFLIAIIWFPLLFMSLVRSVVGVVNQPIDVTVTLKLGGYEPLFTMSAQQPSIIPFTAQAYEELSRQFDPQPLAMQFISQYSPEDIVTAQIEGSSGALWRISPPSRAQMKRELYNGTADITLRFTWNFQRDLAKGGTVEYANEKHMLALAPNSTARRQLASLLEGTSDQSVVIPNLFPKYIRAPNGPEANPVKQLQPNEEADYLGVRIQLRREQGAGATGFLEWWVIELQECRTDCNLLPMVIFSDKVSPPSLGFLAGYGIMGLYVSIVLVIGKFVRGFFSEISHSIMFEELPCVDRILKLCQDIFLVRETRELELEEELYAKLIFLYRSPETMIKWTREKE
thermal stability z-score [1, 3]: -0.342
thermal stability z-score ([1]; arsenate co-treatment: none): 0.0689
thermal stability z-score [2]: 0.19

KPNA1 (UniProt P52294)
thermal stability z-score [1, 3]: -0.0607
thermal stability z-score ([1]; arsenate co-treatment: none): -0.0226
thermal stability z-score [2]: 0.239

PHLPP1 (UniProt O60346)
Chain of UniProt O60346 (O60346 whole entry): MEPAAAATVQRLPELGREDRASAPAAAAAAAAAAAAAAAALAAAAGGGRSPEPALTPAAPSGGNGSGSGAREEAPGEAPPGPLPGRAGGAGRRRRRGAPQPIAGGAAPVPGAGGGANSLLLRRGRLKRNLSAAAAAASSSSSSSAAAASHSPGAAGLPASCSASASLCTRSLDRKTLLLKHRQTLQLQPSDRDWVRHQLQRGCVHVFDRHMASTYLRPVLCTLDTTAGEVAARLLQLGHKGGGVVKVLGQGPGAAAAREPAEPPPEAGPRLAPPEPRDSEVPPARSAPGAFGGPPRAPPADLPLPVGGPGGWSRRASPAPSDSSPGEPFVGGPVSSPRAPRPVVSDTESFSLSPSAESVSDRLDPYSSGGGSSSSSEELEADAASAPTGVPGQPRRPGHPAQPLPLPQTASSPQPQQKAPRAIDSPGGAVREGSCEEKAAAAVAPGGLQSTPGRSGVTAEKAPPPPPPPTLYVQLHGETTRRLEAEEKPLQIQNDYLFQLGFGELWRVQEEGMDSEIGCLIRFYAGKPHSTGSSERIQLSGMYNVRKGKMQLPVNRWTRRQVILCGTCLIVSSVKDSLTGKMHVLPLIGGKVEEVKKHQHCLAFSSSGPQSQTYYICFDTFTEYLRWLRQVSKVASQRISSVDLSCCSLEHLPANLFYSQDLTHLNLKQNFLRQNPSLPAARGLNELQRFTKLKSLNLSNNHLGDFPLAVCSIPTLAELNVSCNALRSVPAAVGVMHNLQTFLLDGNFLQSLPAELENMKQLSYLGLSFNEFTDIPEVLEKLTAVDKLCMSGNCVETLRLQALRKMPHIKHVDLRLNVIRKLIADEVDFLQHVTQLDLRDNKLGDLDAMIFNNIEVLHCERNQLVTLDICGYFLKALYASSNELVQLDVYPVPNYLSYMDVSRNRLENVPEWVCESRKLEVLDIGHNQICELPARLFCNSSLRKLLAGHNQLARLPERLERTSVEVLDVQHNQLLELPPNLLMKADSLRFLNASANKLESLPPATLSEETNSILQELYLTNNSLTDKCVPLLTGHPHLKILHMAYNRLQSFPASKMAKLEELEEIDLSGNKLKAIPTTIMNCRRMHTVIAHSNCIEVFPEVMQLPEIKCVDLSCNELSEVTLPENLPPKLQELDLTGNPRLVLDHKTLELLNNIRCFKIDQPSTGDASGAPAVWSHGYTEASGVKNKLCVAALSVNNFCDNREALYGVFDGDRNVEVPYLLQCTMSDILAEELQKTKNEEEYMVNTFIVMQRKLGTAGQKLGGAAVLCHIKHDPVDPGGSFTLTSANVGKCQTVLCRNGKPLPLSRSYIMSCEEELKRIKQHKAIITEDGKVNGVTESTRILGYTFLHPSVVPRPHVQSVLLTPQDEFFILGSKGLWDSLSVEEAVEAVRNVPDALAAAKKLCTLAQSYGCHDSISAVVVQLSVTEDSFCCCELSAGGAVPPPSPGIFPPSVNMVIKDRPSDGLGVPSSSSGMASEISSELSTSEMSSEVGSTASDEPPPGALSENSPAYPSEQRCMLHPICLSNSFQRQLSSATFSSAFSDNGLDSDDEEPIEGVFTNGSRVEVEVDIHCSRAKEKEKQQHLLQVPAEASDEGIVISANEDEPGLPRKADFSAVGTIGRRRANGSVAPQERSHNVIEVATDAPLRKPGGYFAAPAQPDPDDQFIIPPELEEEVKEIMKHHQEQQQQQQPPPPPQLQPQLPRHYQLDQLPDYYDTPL
thermal stability z-score [1, 3]: 0.138
thermal stability z-score ([1]; arsenate co-treatment: none): -0.144
thermal stability z-score [2]: -0.061

RCC2 (UniProt Q9P258)
thermal stability z-score [1, 3]: -0.997
thermal stability z-score ([1]; arsenate co-treatment: none): -0.671
thermal stability z-score [2]: -0.0515

ATP13A1 (UniProt Q9HD20)
thermal stability z-score [1, 3]: -0.0204
thermal stability z-score ([1]; arsenate co-treatment: none): 0.186
thermal stability z-score [2]: -0.277

FANCB (UniProt Q8NB91)
Chain of UniProt Q8NB91 (Q8NB91 whole entry): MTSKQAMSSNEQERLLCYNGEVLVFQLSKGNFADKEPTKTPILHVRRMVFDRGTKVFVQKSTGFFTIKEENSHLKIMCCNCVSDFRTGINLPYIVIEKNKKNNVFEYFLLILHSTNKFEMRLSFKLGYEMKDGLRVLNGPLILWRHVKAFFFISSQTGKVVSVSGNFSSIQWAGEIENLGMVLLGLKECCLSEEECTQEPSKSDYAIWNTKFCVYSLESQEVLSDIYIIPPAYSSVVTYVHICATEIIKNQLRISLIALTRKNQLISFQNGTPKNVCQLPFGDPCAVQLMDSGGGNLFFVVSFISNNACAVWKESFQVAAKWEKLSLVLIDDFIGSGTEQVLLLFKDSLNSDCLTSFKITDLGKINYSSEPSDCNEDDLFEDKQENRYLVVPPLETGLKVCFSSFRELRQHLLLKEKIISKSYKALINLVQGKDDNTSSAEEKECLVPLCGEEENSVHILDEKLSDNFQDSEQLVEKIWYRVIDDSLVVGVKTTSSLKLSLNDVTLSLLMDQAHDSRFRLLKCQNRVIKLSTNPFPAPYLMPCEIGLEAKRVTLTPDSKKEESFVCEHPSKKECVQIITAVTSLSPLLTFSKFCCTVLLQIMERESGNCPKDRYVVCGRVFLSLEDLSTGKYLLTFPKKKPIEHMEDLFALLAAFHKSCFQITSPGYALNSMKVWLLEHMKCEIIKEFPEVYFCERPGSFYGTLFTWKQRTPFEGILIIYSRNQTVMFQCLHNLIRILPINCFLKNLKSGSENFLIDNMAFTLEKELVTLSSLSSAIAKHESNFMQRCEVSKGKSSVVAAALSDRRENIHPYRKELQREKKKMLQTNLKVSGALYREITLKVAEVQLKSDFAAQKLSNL
thermal stability z-score [1, 3]: -0.147
thermal stability z-score ([1]; arsenate co-treatment: none): -0.547
thermal stability z-score [2]: -1.04

MAT2B (UniProt Q9NZL9)
thermal stability z-score [1, 3]: -0.368
thermal stability z-score ([1]; arsenate co-treatment: none): -0.144
thermal stability z-score [2]: -0.705

ATAD1 (UniProt Q8NBU5)
thermal stability z-score [1, 3]: 0.216
thermal stability z-score ([1]; arsenate co-treatment: none): 0.454
thermal stability z-score [2]: 0.641

PCSK9 (UniProt Q8NBP7)
thermal stability z-score [1, 3]: -0.578
thermal stability z-score ([1]; arsenate co-treatment: none): -0.462
thermal stability z-score [2]: 0.0738

CAMSAP2 (UniProt Q08AD1)
thermal stability z-score [1, 3]: -0.52
thermal stability z-score ([1]; arsenate co-treatment: none): -0.353
thermal stability z-score [2]: -1.05

NIPA2 (UniProt Q8N8Q9)
thermal stability z-score [1, 3]: 0.499
thermal stability z-score ([1]; arsenate co-treatment: none): 0.101
thermal stability z-score [2]: 0.36

CCNDBP1 (UniProt O95273)
thermal stability z-score [1, 3]: 0.104
thermal stability z-score ([1]; arsenate co-treatment: none): -0.0265
thermal stability z-score [2]: 0.133

HMG20B (UniProt Q9P0W2)
thermal stability z-score [1, 3]: -0.211
thermal stability z-score ([1]; arsenate co-treatment: none): -0.0202
thermal stability z-score [2]: 0.0621
